Each structure is given as a SMILES string. pIC50, pKi: −log10 of the molar value.

For data set [1], the target named is T1, human TRPV4 (hTRPV4/CHO cells) (Homo sapiens, UniProt Q9HBA0).
T1 construct: expressed in transfected cells; host or cells: CHO-K1
The data set is described as follows: Test Example 1: TRPV4 inhibitory activity (IC50 value), 4α-PDD stimulation, Fluo4 calcium fluorescence (FLIPR TETRA). The settings on record: Test Example 1, 4α-PDD stimulation, read-out: Test 1 IC50. The data set is classed as cell-based.

Data set [2] in a line: Test Example 8: Solubility test. The data set is classed as physicochemical. The settings on record: fassgf or other biorelevant, kinetic from dmso stock; 1% DMSO addition, artificial intestinal juice pH 6.8, 16 hours at 25° C. As to the method: The solubility of a compound of the present invention was determined under 1% DMSO addition conditions. A 10 mmol/L solution of the compound was prepared with DMSO, and 6 μL of the solution of the compound of the present invention was added to 594 μL of an artificial intestinal juice (water and 118 mL of 0.2 mol/L NaOH reagent were added to 250 mL of 0.2 mol/L potassium dihydrogen phosphate reagent to reach 1000 mL) with a pH of 6.8. The mixture was left standing for 16 hours at 25° C., and the mixture was vacuum-filtered. The filtrate was two-fold diluted with methanol/water=1/1 (V/V), and the compound concentration in the filtrate was measured with HPLC or LC/MS/MS by the absolute calibration method.

The target of data set [3] is T2, CYP3A4 enzyme expressed in Escherichia coli (Homo sapiens, UniProt P08684).
T2 construct: host or cells: Escherichia coli
In words: Test Example 5: CYP3A4 fluorescent MBI test. The data set is classed as in vitro ADME. To be noted: substrate 7-BFC, pre-reaction 30 minutes, compound 0.625-20 μmol/L. As to the method:
CYP3A4 Fluorescent MBI Test
The CYP3A4 fluorescent MBI test is a test of investigating enhancement of CYP3A4 inhibition of a compound of the present invention by a metabolism reaction, and the test was performed using, as CYP3A4 enzyme expressed in Esherichia coli and employing, as an index, a reaction in which 7-benzyloxytrifluoromethylchmarin (7-BFC) is debenzylated by the CYP3A4 enzyme to produce a metabolite, 7-hydroxytrifluoromethylchmarin (HFC) emitting fluorescent light.
The reaction conditions were as follows: substrate, 5.6 μmol/L 7-BFC; pre-reaction time, […] or 30 minutes; reaction time, 15 minutes; reaction temperature, 25° C. […]
An enzyme in a K-Pi buffer (pH 7.4) and a solution of the compound of the present invention as a pre-reaction solution were added to a 96-well plate at the above composition of the pre-reaction. […] For the plate on which each index reaction had been performed, a fluorescent value of 7-HFC which is a metabolite was measured with a fluorescent plate reader. […]
Addition of only DMSO which is a solvent dissolving the compound of the present invention to a reaction system was adopted as a control (100%). Remaining activity (%) was calculated at each concentration of the compound of the present invention added as the solution, and IC50 was calculated by reverse-presumption by a logistic model using a concentration and an inhibition rate. […]

Data set [4] addresses T3, CYP3A4 (Homo sapiens, UniProt P08684).
T3 construct: enzyme, pooled human hepatic microsome 0.2 mg protein/mL; from tissue; host or cells: pooled human liver microsomes
In words: Test Example 6: CYP inhibition test, terfenedine hydroxylation (CYP3A4). The settings on record: pooled human hepatic microsome, 1 μmol/L terfenedine. The format is in vitro ADME. The procedure: (§1) Test Example 6 CYP Inhibition Test […] The reaction conditions were as follows: substrate, 0.5 μmol/L ethoxyresorufin (CYP1A2), 100 μmol/L tolbutamide (CYP2C9), 50 μmol/L S-mephenytoin (CYP2C19), 5 μmol/L dextromethorphan (CYP2D6), 1 μmol/L terfenedine (CYP3A4); reaction time, 15 minutes; reaction temperature, 37° C.; enzyme, pooled human hepatic microsome 0.2 mg protein/mL; concentration of the compound of the present invention, 1, 5, 10, 20 μmol/L (four points). Each five kinds of substrates, human hepatic microsome, and the compound of the present invention in 50 mmol/L Hepes buffer as a reaction solution were added to a 96-well plate at the composition as described above. NADPH, as a cofactor was added to initiate metabolism reactions as markers and, after the incubation at 37° C. for 15 minutes, a methanol/acetonitrile=1/1 (v/v) solution was added to stop the reaction. After the centrifugation at 3000 rpm for 15 minutes, resorufin (CYP1A2 metabolite) in the supernatant was quantified by a fluorescent multilabel counter and toltributamide hydroxide (CYP2[…] metabolite), mephenytoin 4' hydroxide (CYP2C19 metabolite), […], and terfenadine alcohol (CYP3A4 metabolite) were quantified by LC/MS/MS. Addition of only DMSO being a solvent dissolving the compound of the present invention to a reaction system was adopted as a control (100%). Remaining activity (%) was calculated at each concentration of the compound of the present invention added as the solution and IC50 was calculated by reverse presumption by a logistic model using a concentration and an inhibition rate.

Data set [5] has as its target T4, CYP1A2 (Homo sapiens, UniProt P05177).
T4 construct: enzyme, pooled human hepatic microsome 0.2 mg protein/mL; from tissue; host or cells: pooled human liver microsomes
T4 sequence (P05177 1-516): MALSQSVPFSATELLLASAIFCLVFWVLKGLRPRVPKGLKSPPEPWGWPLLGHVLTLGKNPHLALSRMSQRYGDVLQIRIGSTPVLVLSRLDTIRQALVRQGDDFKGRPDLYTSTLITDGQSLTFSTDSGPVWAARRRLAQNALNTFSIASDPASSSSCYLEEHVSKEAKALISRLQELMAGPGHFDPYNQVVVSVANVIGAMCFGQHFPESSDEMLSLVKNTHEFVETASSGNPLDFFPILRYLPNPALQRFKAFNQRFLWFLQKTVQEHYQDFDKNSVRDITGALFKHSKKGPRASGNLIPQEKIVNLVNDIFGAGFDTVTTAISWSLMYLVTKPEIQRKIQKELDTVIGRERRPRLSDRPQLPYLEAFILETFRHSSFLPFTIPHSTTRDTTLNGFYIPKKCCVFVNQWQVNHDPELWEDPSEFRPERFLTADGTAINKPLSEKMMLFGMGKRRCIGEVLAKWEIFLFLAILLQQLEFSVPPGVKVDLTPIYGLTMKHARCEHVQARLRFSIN
The data set is described as follows: Test Example 6: CYP inhibition test, 7-ethoxyresorufin O-deethylation (CYP1A2). The format is in vitro ADME. To be noted: pooled human hepatic microsome, 0.5 μmol/L ethoxyresorufin. As to the method:
as §1

The target of data set [6] is T5, CYP2C9 (Homo sapiens, UniProt P11712).
T5 construct: enzyme, pooled human hepatic microsome 0.2 mg protein/mL; from tissue; host or cells: pooled human liver microsomes
In words: Test Example 6: CYP inhibition test, tolbutamide methyl-hydroxylation (CYP2C9). The format is in vitro ADME. To be noted: pooled human hepatic microsome, 100 μmol/L tolbutamide. The procedure:
as §1

Data set [7] deals with T6, CYP2D6 (Homo sapiens, UniProt P10635).
T6 construct: enzyme, pooled human hepatic microsome 0.2 mg protein/mL; from tissue; host or cells: pooled human liver microsomes
The data set is described as follows: Test Example 6: CYP inhibition test, dextromethorphan O-demethylation (CYP2D6). The data set is classed as in vitro ADME. The settings on record: pooled human hepatic microsome, 5 μmol/L dextromethorphan. The procedure:
as §1

The target of data set [8] is T7, CYP2C19 (Homo sapiens, UniProt P33261).
T7 construct: enzyme, pooled human hepatic microsome 0.2 mg protein/mL; from tissue; host or cells: pooled human liver microsomes
In words: Test Example 6: CYP inhibition test, mephenytoin 4′-hydroxylation (CYP2C19). The format is in vitro ADME. To be noted: pooled human hepatic microsome, 50 μmol/L S-mephenytoin. The procedure: as §1

Data set [9] in a line: Test Example 9: Metabolism stability test. The data set is classed as in vitro ADME. To be noted: human liver microsomes 0.5 mg protein/mL, 30 minutes at 37° C., NADPH, compound concentration 0.5 μmol/L. As to the method: Metabolism Stability Test
Using a commercially available pooled human hepatic microsomes, a compound of the present invention was reacted for a constant time, a remaining rate was calculated by comparing a reacted sample and an unreacted sample, thereby, a degree of metabolism in liver was assessed.
A reaction was performed (oxidative reaction) at 37° C. for 0 minute or 30 minutes in the presence of 1 mmol/L NADPH in 0.2 mL of a buffer (50 mmol/L Tris-HCl pH 7.4, 150 mmol/L potassium chloride, 10 mmol/L magnesium chloride) containing 0.5 mg protein/mL of human liver microsomes. After the reaction, 50 μL of the reaction mixture was added to 100 μL of a methanol/acetonitrile=1/1 (v/v), mixed and centrifuged at 3000 rpm for 15 minutes. The compound of the present invention in the supernatant was quantified by LC/MS/MS, and a remaining amount of the compound of the present invention after the reaction was calculated, letting a compound amount at 0 minute reaction time to be 100%. Hydrolysis reaction was performed in the absence of NADPH and glucuronidation reaction was in the presence of 5 mmol/L UDP-glucuronic acid in place of NADPH, followed by similar operations.
(Results) Compound concentration: 0.5 μmol/L

The target of data set [10] is T1, human TRPV4 (hTRPV4/CHO cells). In words: Test Example 4: TRPV4 inhibitory activity (Ki value), 4α-PDD stimulation, Fluo-3 calcium fluorescence (FDSS 3000). The settings on record: Test Example 4, 4α-PDD stimulation, read-out: Test 4 Ki. The format is cell-based. An outline of the steps: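 hTRPV4/CHO-K1 cells loaded with 5 μmol/L Fluo-3 in HBSS/HEPES pH 7.5 with probenecid; compound (10 μmol/L to 0.5 nmol/L final, 10 points) added before 4α-PDD, fluorescence read 8 min at Ex 480/Em 540 nm. Max−Min signal normalised to 10 μM Ruthenium Red (100%) and no compound (0%); IC50 converted to Ki using 4α-PDD EC50.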

T1 sequence (Q9HBA0 whole entry): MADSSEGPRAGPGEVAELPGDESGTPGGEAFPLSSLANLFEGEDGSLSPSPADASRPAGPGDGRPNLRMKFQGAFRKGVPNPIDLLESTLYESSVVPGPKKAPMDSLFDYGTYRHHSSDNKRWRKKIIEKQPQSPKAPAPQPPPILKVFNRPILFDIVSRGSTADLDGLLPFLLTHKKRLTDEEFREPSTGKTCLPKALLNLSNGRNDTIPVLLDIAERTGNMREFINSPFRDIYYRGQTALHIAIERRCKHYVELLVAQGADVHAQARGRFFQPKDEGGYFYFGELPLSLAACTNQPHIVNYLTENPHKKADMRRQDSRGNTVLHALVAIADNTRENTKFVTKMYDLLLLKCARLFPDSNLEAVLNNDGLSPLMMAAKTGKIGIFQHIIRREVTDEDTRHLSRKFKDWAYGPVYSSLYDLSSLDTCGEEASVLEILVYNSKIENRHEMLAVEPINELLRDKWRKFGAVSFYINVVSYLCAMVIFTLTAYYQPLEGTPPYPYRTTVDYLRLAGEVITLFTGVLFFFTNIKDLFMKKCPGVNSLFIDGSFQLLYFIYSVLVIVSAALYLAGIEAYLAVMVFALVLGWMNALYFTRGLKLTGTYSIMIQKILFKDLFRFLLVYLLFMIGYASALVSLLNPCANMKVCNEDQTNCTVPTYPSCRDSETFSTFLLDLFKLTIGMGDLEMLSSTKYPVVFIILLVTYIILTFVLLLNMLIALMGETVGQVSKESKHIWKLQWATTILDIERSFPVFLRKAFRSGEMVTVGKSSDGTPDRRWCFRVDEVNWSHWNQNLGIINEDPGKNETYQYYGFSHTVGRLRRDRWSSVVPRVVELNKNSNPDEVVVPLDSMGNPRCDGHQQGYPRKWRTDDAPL
T7 sequence (P33261 whole entry): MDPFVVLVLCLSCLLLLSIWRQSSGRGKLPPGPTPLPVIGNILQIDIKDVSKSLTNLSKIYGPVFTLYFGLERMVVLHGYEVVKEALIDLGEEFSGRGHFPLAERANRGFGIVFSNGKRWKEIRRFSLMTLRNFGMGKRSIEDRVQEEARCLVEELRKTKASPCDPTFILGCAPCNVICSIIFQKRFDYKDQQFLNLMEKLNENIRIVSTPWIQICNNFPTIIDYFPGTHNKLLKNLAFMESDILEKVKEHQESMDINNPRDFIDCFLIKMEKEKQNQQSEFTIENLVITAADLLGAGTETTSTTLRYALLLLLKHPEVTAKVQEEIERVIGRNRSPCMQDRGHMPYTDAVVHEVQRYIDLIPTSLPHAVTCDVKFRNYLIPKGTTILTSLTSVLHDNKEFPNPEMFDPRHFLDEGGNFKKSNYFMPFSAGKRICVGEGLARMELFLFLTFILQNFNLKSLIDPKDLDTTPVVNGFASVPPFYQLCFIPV
T3 sequence (P08684 whole entry): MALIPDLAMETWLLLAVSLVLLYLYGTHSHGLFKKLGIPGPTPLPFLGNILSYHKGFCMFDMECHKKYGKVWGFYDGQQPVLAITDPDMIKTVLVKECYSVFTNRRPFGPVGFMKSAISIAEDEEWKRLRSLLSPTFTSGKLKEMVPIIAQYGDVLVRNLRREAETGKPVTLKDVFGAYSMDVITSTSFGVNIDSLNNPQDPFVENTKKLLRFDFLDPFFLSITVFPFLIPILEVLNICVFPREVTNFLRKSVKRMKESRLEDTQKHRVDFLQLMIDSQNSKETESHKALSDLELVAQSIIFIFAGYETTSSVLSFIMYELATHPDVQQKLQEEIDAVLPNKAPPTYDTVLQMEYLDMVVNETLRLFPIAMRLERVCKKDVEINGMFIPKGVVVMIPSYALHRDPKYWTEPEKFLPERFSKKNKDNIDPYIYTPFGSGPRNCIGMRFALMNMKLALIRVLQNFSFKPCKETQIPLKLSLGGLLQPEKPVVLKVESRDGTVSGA
T5 sequence (P11712 whole entry): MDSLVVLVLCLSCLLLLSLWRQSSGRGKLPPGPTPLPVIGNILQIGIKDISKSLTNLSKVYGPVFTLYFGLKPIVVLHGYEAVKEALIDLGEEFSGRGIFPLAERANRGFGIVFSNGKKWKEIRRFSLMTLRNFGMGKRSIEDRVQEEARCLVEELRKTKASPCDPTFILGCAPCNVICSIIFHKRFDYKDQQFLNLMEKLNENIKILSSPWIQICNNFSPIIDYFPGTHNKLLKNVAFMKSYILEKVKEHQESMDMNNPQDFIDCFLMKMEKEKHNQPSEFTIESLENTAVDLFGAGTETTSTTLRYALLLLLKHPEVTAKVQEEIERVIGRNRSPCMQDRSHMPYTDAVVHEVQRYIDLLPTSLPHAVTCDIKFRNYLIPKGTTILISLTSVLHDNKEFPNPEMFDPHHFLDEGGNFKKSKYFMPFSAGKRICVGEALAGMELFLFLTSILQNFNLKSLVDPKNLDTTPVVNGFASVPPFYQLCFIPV
T6 sequence (P10635 whole entry): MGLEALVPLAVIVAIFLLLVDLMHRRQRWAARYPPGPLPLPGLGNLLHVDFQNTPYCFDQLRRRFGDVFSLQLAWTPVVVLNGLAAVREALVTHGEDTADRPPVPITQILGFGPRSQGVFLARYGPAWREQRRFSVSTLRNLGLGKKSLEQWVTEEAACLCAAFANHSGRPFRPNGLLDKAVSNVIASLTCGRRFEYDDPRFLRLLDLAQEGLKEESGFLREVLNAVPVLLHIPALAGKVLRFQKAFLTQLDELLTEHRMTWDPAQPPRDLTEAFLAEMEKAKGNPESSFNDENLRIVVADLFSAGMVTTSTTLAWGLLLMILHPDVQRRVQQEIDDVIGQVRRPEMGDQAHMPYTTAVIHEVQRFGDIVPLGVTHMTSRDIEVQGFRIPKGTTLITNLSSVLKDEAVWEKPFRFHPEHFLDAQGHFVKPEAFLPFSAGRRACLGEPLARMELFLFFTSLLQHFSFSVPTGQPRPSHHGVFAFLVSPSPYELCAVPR
T2 sequence (P08684 whole entry): as the sequence (P08684 whole entry) above

For `Cc1nc(CN(C)C)sc1-c1csc(NC(=O)Cc2c(F)cccc2F)n1` [Compound I-81], the pIC50 in data set [1] was 5.10 to 6.00. In data set [2], the solubility at 16 h was more than 50 µM.
For `Cc1nc(C(=O)NO)sc1-c1csc(NC(=O)Cc2c(F)cccc2F)n1` [Compound I-107], the pIC50 in data set [1] was 6.00 to 7.00; in [4], less than 4.70; in data set [5], less than 4.70; in data set [6], less than 4.70; in data set [7], less than 4.70; in [8] it was less than 4.70. In addition, the “CYP3A4 fluorescent MBI test: difference between IC50 values without and with preincubation” value in data set [3] is “(−) (when the difference is 3 μM or less, this was defined as (−))”.
`Cc1nc(CO)sc1-c1csc(NC(=O)C2CCC(F)(F)C2)n1` (stereo not drawn) [Compound I-95]: the negative-log IC50 (pIC50) in data set [1] was 6.00 to 7.00; in data set [4], less than 4.70; in [5], less than 4.70; in data set [6], less than 4.70; in [7] it was less than 4.70; in data set [8] it was less than 4.70. The “Metabolism stability: remaining amount of the compound after the reaction” value in [9] is recorded as 99.4%.
For `Cc1nc(C)c(-c2csc(NS(=O)(=O)Cc3ccccc3)n2)s1` [II-1], the pKi in [10] is 5.52 to 6.00. This molecule also had a solubility at 16 h in data set [2] of more than 50 µM.
